From patent US4442218A, “Method of measuring degree of partitioning” (Corning Glass Works, priority 1981, dated 1984)
Read-outs that look alike come from different tables or passages of the source.

What was measured:
[1] = target: thyroxine antibodies immobilized within the pores of stainless steel disc-shaped monoliths; experiment: Scatchard plot evaluation of binding constant, stainless steel disc-shaped monoliths; parameters: species or system rabbit; details: total liquid volume 0.5 ml; disc-shaped monolith, 0.5 mg protein per monolith; read-out: binding constant K (Scatchard plot)
Experimental: The procedure of Example 1 was repeated, except that the cylindrical monoliths were replaced with 316 stainless steel discs 8 mm in diameter and 1.6 mm in thickness and the amount of protein per monolith was increased to 0.5 mg. Mean pore diameters were about 40μ and the total surface area of each disc was about 60 cm^2. In a random sampling of 10 discs, the average weight per disc was 0.330 g with a coefficient of variation of 0.3 percent. The discs were obtained as Stock No. S-2298 from Sintered Specialties, Janesville, Wisc. The Scatchard plot data were obtained using a total liquid volume of 0.5 ml per tube and serial dilutions of I^125 -labeled thyroxine from about 500,000 cpm to about 25,000 cpm.

[2] = target: thyroxine antibodies immobilized within the pores of stainless steel cylindrical monoliths; experiment: Scatchard plot evaluation of binding constant, stainless steel cylindrical monoliths; parameters: species or system rabbit; details: ambient temperature, overnight, shaking, cylindrical monolith, read-out: binding constant K (slope of Scatchard plot) (converted)
Experimental: The treated monoliths were combined with 3.0 ml of a stock solution (prepared as described below) of an immunoglobulin-enriched fraction of an antithyroxine antiserum per 100 g of monoliths dissolved in sufficient 0.1 M phosphate buffer solution (PBS) at pH 7.0 to insure complete submersion of the monoliths (the 3.0 ml of stock solution was equivalent to 0.3 mg of protein per monolith). A water aspirator vacuum was applied to the resulting mixture for a time sufficient to insure complete penetration of the liquid phase into the pores of the monoliths. The mixture then was maintained at 4° on a reciprocating shake table (Eberbach Corporation, Ann Arbor, Mich.) for 48 hours. […] If the bound and free antigen can be separated and the quantity bound measured, then the value of K can be determined by constructing a Scatchard plot; see, e.g., E. D. Day, "Advanced Immunochemistry", Williams & Wilkens Co., Baltimore, Md., 1972, pp. 118ff. Such a procedure is particularly suited to solid-phase immunoassay systems since the bound antigen is readily separated from the free or unbound antigen. The value of K for the monolith-thyroxine antibody complex was determined as follows. […] (3) Each tube was counted for one minute to obtain total counts. […]

Compound `N[C@@H](Cc1cc(I)c(Oc2cc(I)c(O)c(I)c2)c(I)c1)C(=O)O` [thyroxine] has a Kd [1] of 1 nM, a Kd ([2]; total reaction volume 0.5 ml) of 0.175 nM and a Kd ([2]; total reaction volume 1.0 ml) of 0.167 nM.
